Several values for one entry are separate records, joined by “and”; a condition that tells them apart may be missing. Identical values can stand only once. Like-named read-outs stand apart in the source and are kept apart here.
How the values were obtained:
[1] = test system: Kappas-299 cells containing NPM-ALK fusion protein; assay: 4-day cell viability assay (CellTiter-Glo), Kappas-299; type: cell-based; conditions: NPM-ALK, 96 h, inhibition of cell growth, 4 days, multiple values from independent experiments
Protocol: (§1) The effect of compounds on cell viability was determined in a 4-day proliferation assay. Cells were maintained in RPMI1640 culture medium with 10% FBS at 37° C. and an atmosphere of 5% CO2. […] Cells were seeded in 96-well plates at a density of 3,000-10,000 cells/well in 75 μl of culture medium. Compounds were serially diluted in the appropriate medium, and 75 μl of the diluted compounds were added to the appropriate wells of the cell plate. After the addition of compounds, the cells were incubated at 37° C. in an atmosphere of 5% CO2 for 4 days. Cell viability was determined using the CellTiter-Glo® Luminescent Cell Viability Assay Kit (Promega, Madison, Wis.) (for KARPAS-299 cells) or WST (2-(2-methoxy-4-nitrophenyl)-3-(4-nitrophenyl)-5-(2,4-disulfophenyl)-2H-tetrazolium, monosodium salt) Cell Counting-8 Kit (Dojindo Molecular Technologies, Inc., Rockville, Md.) (for H3122 cells) according to the manufacturers' instructions.
For CellTiter-Glo assay, 100 μl of CellTiter-Glo® Reagent was added to each well, and then the plates were incubated at room temperature for 10-20 minutes. The luminescent signal was measured using a Tecan Infinite M1000 multimode microplate reader (Tecan, Morrisville, N.C.). The readings were normalized to the DMSO-treated cells and the IC50 was calculated by nonlinear regression analysis using the GraphPad Prism 5 software.
Cells were treated for four days and cell growth was determined using a CellTiter-Glo assay.

[2] = test system: H3122 non-small cell lung cancer cell line harboring the EML4-ALK fusion gene; assay: 4-day cell viability assay (WST), H3122; type: cell-based; conditions: Homo sapiens, NCI-H3122, 96 h, 4 days, read-out: IC50 (nM) in Inhibition of Tumor Cell Growth H3122 Cell line
Protocol: as §1
For WST assay, WST-8 reagent was added to each well at a final concentration of 10% (v/v), and then the plates were incubated at 37° C. for 1-2 hours for color development. The absorbance was measured at 450 nm using a SPECTRAmax PLUS plate reader (Molecular Devices, Sunnyvale, Calif.). The readings were normalized to the DMSO-treated cells and the half maximal inhibitory concentration (IC50) was calculated by nonlinear regression analysis using the GraphPad Prism 5 software (GraphPad Software, La Jolla, Calif.).
Cells were treated for four days and cell growth was determined using a WST assay.

[3] = molecular target: wild-type human ALK protein (cytoplasmic domain, amino acid 1058-1620, GST-fusion) (Homo sapiens, UniProt Q9UM73); assay: biochemical; conditions: 100 μM ATP
Protocol: (§2) Kinase activities of all enzymes were assessed using a Lance TR-FRET assay kit from Perkin Elmer Life Sciences (Waltham, Mass.). 2.5 μL of compound solution and 5 μL of protein solution were added into a black low volume 384 well microtiter plate which was incubated for 15 minutes with gentle shaking at room temperature, followed by adding 2.5 μL of fluorescently labeled peptide substrate (Ulight-[sequence]) and ATP mixture solution. The kinase reaction was performed in 50 mM HEPES (pH 7.5) with 1 mM EGTA, 1 mM MgCl2, and 2 mM DTT, 0.01% Tween-20 added right before the assay. […] The reaction was allowed to perform for 90 minutes in dark with gentle shaking at room temperature after which 10 μL of 20 mM EDTA and 2 nM Eu-W1024 anti-phosphotyrosine antibody (PT66) mixture solution in the detection buffer from the manufacturer was added to terminate the reaction and detect the phosphorylation of the peptide substrate. Final mixture was incubated in the dark for 1 hour before the plate was read on a Tecan Infinite M-1000 multi-mode plate reader (Tecan, Durham N.C.) with an excitation wavelength of 320 nm.

[4] = Pharmacokinetic parameters in SD rats, IV and PO; set-up: AUC(0-t): concentration or dose not given beside the values; conditions: Sprague-Dawley (SD), rat, in vivo; for bioavailability: po, read-out: Oral Bioavailability (F)
Source text: The pharmacokinetic (PK) parameters in SD rats for selected compounds with intravenous (IV) and oral (PO) administrations are provided in the following table (Table 5).

ALK mutant (G1269A) = ALK mutant (G1269A) (Homo sapiens, UniProt Q9UM73, G1269A); assay: biochemical; conditions: 100 μM ATP
Protocol: as §2

ALK mutant (S1206Y) = ALK mutant (S1206Y) (Homo sapiens, UniProt Q9UM73, S1206Y); assay: biochemical
Protocol: as §2

[5] = intravenous, read-out: AUC0-t IV
[6] = intravenous, read-out: t1/2 IV (converted)
[7] = oral, read-out: t1/2 PO (converted)
[8] = IC50 ALK Wild-type, Table 2, wild-type ALK

Sequence of wild-type human ALK protein (cytoplasmic domain, amino acid 1058-1620, GST-fusion) (Q9UM73 1058-1620): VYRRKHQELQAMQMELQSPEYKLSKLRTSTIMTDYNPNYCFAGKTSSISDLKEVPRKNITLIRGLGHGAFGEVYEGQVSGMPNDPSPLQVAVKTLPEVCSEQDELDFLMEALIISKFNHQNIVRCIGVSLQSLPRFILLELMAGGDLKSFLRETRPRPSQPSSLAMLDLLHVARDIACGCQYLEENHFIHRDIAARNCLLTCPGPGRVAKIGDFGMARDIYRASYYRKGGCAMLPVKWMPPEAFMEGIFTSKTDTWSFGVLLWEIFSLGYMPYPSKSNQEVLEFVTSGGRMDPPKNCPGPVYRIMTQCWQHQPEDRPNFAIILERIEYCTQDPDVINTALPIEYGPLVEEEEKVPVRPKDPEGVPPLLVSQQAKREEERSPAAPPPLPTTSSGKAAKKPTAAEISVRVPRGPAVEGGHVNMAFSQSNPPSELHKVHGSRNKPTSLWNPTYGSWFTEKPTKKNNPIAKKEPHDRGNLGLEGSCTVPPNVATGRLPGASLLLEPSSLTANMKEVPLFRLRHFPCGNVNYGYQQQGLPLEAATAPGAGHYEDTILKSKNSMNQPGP
Sequence of ALK mutant (G1269A) (Q9UM73 19-1620 G1269A): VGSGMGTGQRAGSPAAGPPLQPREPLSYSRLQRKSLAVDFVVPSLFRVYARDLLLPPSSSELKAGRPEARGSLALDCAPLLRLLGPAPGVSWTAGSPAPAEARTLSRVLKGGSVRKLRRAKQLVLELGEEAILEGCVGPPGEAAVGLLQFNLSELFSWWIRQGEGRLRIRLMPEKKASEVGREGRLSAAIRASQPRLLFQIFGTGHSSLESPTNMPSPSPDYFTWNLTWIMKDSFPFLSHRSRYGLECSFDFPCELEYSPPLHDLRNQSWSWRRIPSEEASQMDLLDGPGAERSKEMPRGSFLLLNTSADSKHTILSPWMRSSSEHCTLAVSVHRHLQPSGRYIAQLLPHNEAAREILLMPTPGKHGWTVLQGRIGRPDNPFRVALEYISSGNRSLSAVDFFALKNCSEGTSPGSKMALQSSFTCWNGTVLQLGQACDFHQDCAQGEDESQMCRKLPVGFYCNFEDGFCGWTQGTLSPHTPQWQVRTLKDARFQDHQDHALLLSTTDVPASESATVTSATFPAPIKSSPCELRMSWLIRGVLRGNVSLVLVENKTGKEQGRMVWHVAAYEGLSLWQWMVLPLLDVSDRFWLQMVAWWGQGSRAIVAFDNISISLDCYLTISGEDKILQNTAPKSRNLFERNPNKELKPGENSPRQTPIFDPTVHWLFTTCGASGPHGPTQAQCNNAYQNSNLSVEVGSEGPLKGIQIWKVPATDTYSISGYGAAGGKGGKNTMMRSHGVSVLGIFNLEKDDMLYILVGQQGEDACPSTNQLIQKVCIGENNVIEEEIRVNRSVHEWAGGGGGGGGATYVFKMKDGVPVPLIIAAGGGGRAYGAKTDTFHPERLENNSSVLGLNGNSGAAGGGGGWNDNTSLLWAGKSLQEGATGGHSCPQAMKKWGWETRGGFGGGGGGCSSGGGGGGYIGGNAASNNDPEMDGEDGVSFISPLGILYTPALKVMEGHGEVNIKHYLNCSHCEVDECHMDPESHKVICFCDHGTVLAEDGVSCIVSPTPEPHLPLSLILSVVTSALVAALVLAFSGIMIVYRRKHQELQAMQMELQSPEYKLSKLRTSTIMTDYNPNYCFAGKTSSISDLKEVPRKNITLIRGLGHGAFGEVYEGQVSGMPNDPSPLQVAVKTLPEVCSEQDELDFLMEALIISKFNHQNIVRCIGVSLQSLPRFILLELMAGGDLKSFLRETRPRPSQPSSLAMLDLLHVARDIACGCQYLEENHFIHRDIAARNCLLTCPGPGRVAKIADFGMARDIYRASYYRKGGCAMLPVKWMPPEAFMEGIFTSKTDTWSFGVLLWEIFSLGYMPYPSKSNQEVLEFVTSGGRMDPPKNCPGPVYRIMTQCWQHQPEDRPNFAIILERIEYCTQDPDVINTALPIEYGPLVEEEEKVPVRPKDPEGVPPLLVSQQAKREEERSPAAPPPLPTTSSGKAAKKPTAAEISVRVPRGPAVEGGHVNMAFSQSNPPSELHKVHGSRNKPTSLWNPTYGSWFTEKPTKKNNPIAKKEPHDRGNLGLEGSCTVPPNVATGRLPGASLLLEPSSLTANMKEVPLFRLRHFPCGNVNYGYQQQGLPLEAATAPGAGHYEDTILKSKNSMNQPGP
Sequence of ALK mutant (S1206Y) (Q9UM73 19-1620 S1206Y): as the sequence (Q9UM73 19-1620 G1269A) above, with S1188Y, A1251G counted along it

Row | Compound | IC50 [2] [nM] | IC50 ([3]; ALK IC50, wild-type ALK) [nM] | IC50 [1] [nM] | also measured
1 | CC(C)Oc1cc2c(=O)c3c4ccc(C#N)cc4[nH]c3n(C(C)C)c2c(F)c1N1CCC(N2CCOCC2)CC1 [ALK-85, 4-Fluoro-2-isopropoxy-5-isopropyl-3-(4-morpholinopiperidin-1-yl)-11-oxo-6,11-dihydro-5H-indolo[2,3-b]quinoline-8-carbonitrile] | 148 ± 26 | 22.9 | 66 | 
2 | CCc1cc2c(=O)c3c4ccc(C#N)cc4[nH]c3n(C(C)C)c2cc1C1CCN(C2COC2)CC1 [CJ-2238, 2-Ethyl-5-isopropyl-3-(1-(oxetan-3-yl)piperidin-4-yl)-11-oxo-6,11-dihydro-5H-indolo[2,3-b]quinoline-8-carbonitrile] | 1040 | 2.6 | 231 | 
3 | CC(C)Oc1cc2c(=O)c3c4ccc(C#N)cc4[nH]c3n(C(C)C)c2c(F)c1N1CCN(C)CC1 [ALK-86, 4-Fluoro-2-isopropoxy-5-isopropyl-3-(4-methylpiperazin-1-yl)-11-oxo-6,11-dihydro-5H-indolo[2,3-b]quinoline-8-carbonitrile] | 161 | 5.8 | 31 | AUC(0-t) [4, 5]: 1080 ng·h/mL; Cmax ([4]; intravenous, read-out: Cmax IV): 261 ng/mL; Tmax ([4]; intravenous, read-out: Tmax IV): 0.083 h; half-life [4, 6]: 5.23 h; AUC(0-t) ([4]; oral, read-out: AUC0-t PO): 2440 ng·h/mL; Cmax ([4]; oral, read-out: Cmax PO): 258 ng/mL; Tmax ([4]; oral, read-out: Tmax PO): 4 h; half-life [4, 7]: 5.11 h; bioavailability [4]: 44.6%
4 | COc1cc2c(=O)c3c4ccc(C#N)cc4[nH]c3n(C3CCC3)c2c(F)c1N1CCC(N2CCOCC2)CC1 [ALK-74, 5-Cyclobutyl-4-fluoro-2-methoxy-3-(4-morpholinopiperidin-1-yl)-11-oxo-6,11-dihydro-5H-indolo[2,3-b]quinoline-8-carbonitrile] | 84 | 8.4 | 98 | 
5 | COc1cc2c(=O)c3c4ccc(C#N)cc4[nH]c3n(C3CCC3)c2c(F)c1N1CCN(C)CC1 [ALK-75, 5-Cyclobutyl-4-fluoro-2-methoxy-3-(4-methylpiperazin-1-yl)-11-oxo-6,11-dihydro-5H-indolo[2,3-b]quinoline-8-carbonitrile] | 35.9 | 3.6 | 22 | 
6 | CCOc1cc2c(=O)c3c4ccc(C#N)cc4[nH]c3n(C(C)C)c2c(F)c1N1CCC(N2CCOCC2)CC1 [ALK-76, 2-Ethoxy-4-fluoro-5-isopropyl-3-(4-morpholinopiperidin-1-yl)-11-oxo-6,11-dihydro-5H-indolo[2,3-b]quinoline-8-carbonitrile] | 85 ± 11 | 2.5 | 35 | 
7 | CCOc1cc2c(=O)c3c4ccc(C#N)cc4[nH]c3n(C(C)C)c2c(F)c1N1CCN(C)CC1 [ALK-83, 2-Ethoxy-4-fluoro-5-isopropyl-3-(4-methylpiperazin-1-yl)-11-oxo-6,11-dihydro-5H-indolo[2,3-b]quinoline-8-carbonitrile] | 8.8 | 2 | 21 | AUC(0-t) [4, 5]: 1100 ng·h/mL; Cmax ([4]; intravenous, read-out: Cmax IV): 346 ng/mL; Tmax ([4]; intravenous, read-out: Tmax IV): 0.083 h; half-life [4, 6]: 5.24 h; AUC(0-t) ([4]; oral, read-out: AUC0-t PO): 4430 ng·h/mL; Cmax ([4]; oral, read-out: Cmax PO): 548 ng/mL; Tmax ([4]; oral, read-out: Tmax PO): 4 h; half-life [4, 7]: 4.1 h; bioavailability [4]: 78.8%

Now those with a lower IC50 ([3]; ALK IC50, wild-type ALK), led by results:

Row | IC50 [2] [nM] | IC50 ([3]; ALK IC50, wild-type ALK) [nM] | Compound | IC50 [1] [nM] | also measured
8 | 36 ± 13 | 0.77 | CCc1cc2c(=O)c3c4ccc(C#N)cc4[nH]c3n(C(C)C)c2cc1C1CCN(C(C)C)CC1 [CJ-2239, 2-Ethyl-5-isopropyl-3-(1-isopropylpiperidin-4-yl)-11-oxo-6,11-dihydro-5H-indolo[2,3-b]quinoline-8-carbonitrile] | 16 | 
9 | 25.9 | 1.1 | CCc1cc2c(=O)c3c4ccc(C#N)cc4[nH]c3n(C(C)C)c2cc1N1CCN(C2COC2)CC1 [ALK-77, 2-Ethyl-5-isopropyl-3-(4-(oxetan-3-yl)piperazin-1-yl)-11-oxo-6,11-dihydro-5H-indolo[2,3-b]quinoline-8-carbonitrile] | 31 | 
10 |  | 0.67 | C#Cc1cc2c(=O)c3c4ccc(C#N)cc4[nH]c3n(C3CCC3)c2cc1N1CCN(C)CC1 [ALK-72, 5-Cyclobutyl-2-ethynyl-3-(4-methylpiperazin-1-yl)-11-oxo-6,11-dihydro-5H-indolo[2,3-b]quinoline-8-carbonitrile] | 52 | IC50 [3, 8]: 0.67 nM; IC50 (ALK mutant (G1269A)): 2.4 nM; IC50 (ALK mutant (S1206Y)): 2.8 nM
11 | 13.1 | 0.7 | CCc1cc2c(=O)c3c4ccc(C#N)cc4[nH]c3n(C(C)C)c2cc1N1CCC(N2CCOCC2)CC1 [ALK-78, 2-Ethyl-5-isopropyl-3-(4-morpholinopiperidin-1-yl)-11-oxo-6,11-dihydro-5H-indolo[2,3-b]quinoline-8-carbonitrile] | 25 | 
12 | 33 ± 12 | 0.78 | CCc1cc2c(=O)c3c4ccc(C#N)cc4[nH]c3n(C(C)C)c2cc1C1CCN(C2CCOCC2)CC1 [CJ-2240, 2-Ethyl-5-isopropyl-11-oxo-3-(1-(tetrahydro-2H-pyran-4-yl)piperidin-4-yl)-6,11-dihydro-5H-indolo[2,3-b]quinoline-8-carbonitrile] | 35 | 
13 | 154 | 0.32 | CCc1cc2c(=O)c3c4ccc(C#N)cc4[nH]c3n(C(C)C)c2cc1C1CCN(CCO)CC1 [CJ-2241, 2-Ethyl-3-(1-(2-hydroxyethyl)piperidin-4-yl)-5-isopropyl-11-oxo-6,11-dihydro-5H-indolo[2,3-b]quinoline-8-carbonitrile] | 292 | 
14 | 2 ± 1 | 0.11 | CCc1cc2c(=O)c3c4ccc(C#N)cc4[nH]c3n(C(C)C)c2cc1N1CCC(N2CCN(C)CC2)CC1 [ALK-79, 2-Ethyl-5-isopropyl-3-(4-(4-methylpiperazin-1-yl)piperidin-1-yl)-11-oxo-6,11-dihydro-5H-indolo[2,3-b]quinoline-8-carbonitrile] | 9.6 | 
15 |  | 0.31 | C#Cc1cc2c(=O)c3c4ccc(C#N)cc4[nH]c3n(C(C)C)c2cc1N1CCN(C)CC1 [ALK-71, 2-Ethynyl-5-isopropyl-3-(4-methylpiperazin-1-yl)-11-oxo-6,11-dihydro-5H-indolo[2,3-b]quinoline-8-carbonitrile] | 31 | IC50 [3, 8]: 0.31 nM; IC50 (ALK mutant (G1269A)): 0.47 nM and 0.55 nM; IC50 (ALK mutant (S1206Y)): 1.3 nM

Source: patent publication US9783539B2, “Indoloquinolone compounds as anaplastic lymphoma kinase (ALK) inhibitors” (Jiangsu Ascentage Biomed Development Inc., priority 2014, dated 2017)
